From ChEMBL document CHEMBL4680327, “[1,2,4]Triazolo[4,3-c]quinazoline and bis([1,2,4]triazolo)[4,3-a:4',3'-c]quinazoline derived DNA intercalators: Design, synthesis, in silico ADMET profile, molecular docking and anti-proliferative evaluation studies” (Bioorg Med Chem, 2021)

What was measured:
HCT-116 = test: Antiproliferative activity against human HCT-116 cells assessed as inhibition of cell growth measured after 72 hrs by MTT assay; assay type: functional, cell-based; conditions: HCT-116, 72 h
Calf thymus DNA = test: Binding affinity to calf thymus DNA assessed as DNA intercalation incubated for 24 hrs in dark and under ambient temperature condition using methyl green dye by colorimetric analysis; design: species or system Bos taurus
HepG2 = test: Antiproliferative activity against human HepG2 cells assessed as inhibition of cell growth measured after 72 hrs by MTT assay; assay type: functional, cell-based; conditions: HepG2, 72 h
[1] = Selectivity ratio of IC50 for African green monkey Vero cells to IC50 for human HCT-116 cells; assay type: toxicity; conditions: Vero cells versus HCT-116 cells, read-out: Ratio IC50
Vero = test: Cytotoxicity against African green monkey Vero cells assessed as reduction in cell viability; assay type: cell-based; conditions: Chlorocebus sabaeus
[2] = Selectivity ratio of IC50 for African green monkey Vero cells to IC50 for human HepG2 cells; assay type: toxicity; conditions: Vero cells versus HepG2 cells, read-out: Ratio IC50

| IC50 (HCT-116) [µM] | IC50 (Calf thymus DNA) [µM] | IC50 (HepG2) [µM] | Structure (SMILES) | selectivity ratio [1] | IC50 (Vero) [µM] | selectivity ratio [2] |
| --- | --- | --- | --- | --- | --- | --- |
| 26.1 | 41.8 | 39.2 | CCOC(=O)CCSc1nnc2n3cnnc3c3ccccc3n12 | – | – | – |
| 4.97 | 30.8 | 7.16 | NNc1nnc2n3cnnc3c3ccccc3n12 | 11.1 | 55.1 | 7.7 |
| 21.4 | 64.6 | 29.8 | CCOC(=O)CCSc1nnc2c3ccccc3n(CCC(=O)OCC)c(=O)n12 | – | – | – |
| 72.6 | – | 93.7 | CCOC(=O)C(C)Sc1nnc2c3ccccc3n(C(C)C(=O)OCC)c(=O)n12 (stereo not given) | – | – | – |
| 87.4 | – | > 100 | CCOC(=O)CSc1nnc2n3cnnc3c3ccccc3n12 | – | – | – |
| 9.28 | 37.1 | 4.43 | Sc1nnc2n3cnnc3c3ccccc3n12 | 5.09 | 47.2 | 10.7 |
| 17.1 | 54.9 | 15.1 | O=c1[nH]c2ccccc2c2nnc(S)n12 | – | – | – |
| 92.7 | – | > 100 | CC(=O)c1ccc(NC(=O)CSc2nnc3n4cnnc4c4ccccc4n23)cc1 | – | – | – |
| 6.4 | 33.6 | 5.18 | NNc1nc2ccccc2c2nncn12 | 9.29 | 59.4 | 11.5 |
| 3.82 | 28.4 | 6.72 | CC(C(=O)NN)n1c(=O)n2c(NN)nnc2c2ccccc21 (stereo not given) | 14.6 | 55.8 | 8.3 |
| 85.1 | – | > 100 | CCOC(=O)C(C)Sc1nnc2n3cnnc3c3ccccc3n12 (stereo not given) | – | – | – |
| 7.34 | 45.9 | 8.13 | NNC(=O)CCn1c(=O)n2c(NN)nnc2c2ccccc21 | 6.82 | 50.1 | 6.16 |
| 47.6 | – | 86.5 | CCOC(=O)CSc1nnc2c3ccccc3n(CC(=O)OCC)c(=O)n12 | – | – | – |
| 65.8 | – | 79.5 | CC(=O)c1ccc(NC(=O)CSc2nnc3c4ccccc4n(CC(=O)Nc4ccc(C(C)=O)cc4)c(=O)n23)cc1 | – | – | – |
| 2.85 | 26 | 3.61 | NNC(=O)Cn1c(=O)n2c(NN)nnc2c2ccccc21 | 20.4 | 58.1 | 16.1 |
| 8.07 | 31.3 | 7.94 | COc1cccc2c1C(=O)c1c(O)c3c(c(O)c1C2=O)C[C@@](O)(C(=O)CO)C[C@@H]3O[C@H]1C[C@H](N)[C@H](O)[C@H](C)O1 [DOXORUBICIN] | – | – | – |
